Data reported in PubChem BioAssay AID330 (DTP/NCI, 2004).
Values joined by “and” are separate entries in the source; they are usually repeats but may differ in a detail not shown here. Identical values can stand only once. Inconclusive results and toxic doses are left out. Rule for the calls: active = survival T/C of 150% or more; inactive = T/C below 125% in these data.

System: P388 leukemia ip, CD2F1 mice, survival T/C
Assay: NCI In Vivo Anticancer Drug Screen. Data for tumor model P388 Leukemia (intraperitoneal) in CD2F1 (CDF1) mice
Details: endpoint: median survival time, higher = longer survival
In short: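 Mice carrying the transplanted tumor received test compound or vehicle. Survival was recorded in each group, and the value is the treated-group measurement divided by that of the vehicle-treated control group.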

[1] = dose: 100.0 mg/kg/injection, schedule: Q01DX009 (ip), vehicle: saline
[2] = dose: 200.0 mg/kg/injection, schedule: Q01DX009 (ip), vehicle: saline
[3] = dose: 50.0 mg/kg/injection, schedule: Q01DX009 (ip), vehicle: Klucel (hydroxypropylcellulose) (HPC)
[4] = dose: 50.0 mg/kg/injection, schedule: Q01DX005 (ip), vehicle: Klucel (hydroxypropylcellulose) (HPC)
[5] = dose: 100.0 mg/kg/injection, schedule: Q01DX005 (ip), vehicle: Klucel (hydroxypropylcellulose) (HPC)
[6] = dose: 200.0 mg/kg/injection, schedule: Q01DX005 (ip), vehicle: Klucel (hydroxypropylcellulose) (HPC)
[7] = dose: 60.0 mg/kg/injection, schedule: Q01DX005 (ip), vehicle: Klucel (hydroxypropylcellulose) (HPC)
[8] = dose: 120.0 mg/kg/injection, schedule: Q01DX005 (ip), vehicle: Klucel (hydroxypropylcellulose) (HPC)
[9] = dose: 240.0 mg/kg/injection, schedule: Q01DX005 (ip), vehicle: Klucel (hydroxypropylcellulose) (HPC)
[10] = dose: 100.0 mg/kg/injection, schedule: Q01DX009 (ip), vehicle: saline with Tween-80
[11] = dose: 200.0 mg/kg/injection, schedule: Q01DX009 (ip), vehicle: saline with Tween-80
[12] = dose: 400.0 mg/kg/injection, schedule: Q01DX009 (ip), vehicle: saline with Tween-80
[13] = dose: 60.0 mg/kg/injection, schedule: Q01DX005 (ip), vehicle: saline
[14] = dose: 120.0 mg/kg/injection, schedule: Q01DX005 (ip), vehicle: saline
[15] = dose: 240.0 mg/kg/injection, schedule: Q01DX005 (ip), vehicle: saline
[16] = dose: 50.0 mg/kg/injection, schedule: Q01DX009 (ip), vehicle: saline
[17] = dose: 100.0 mg/kg/injection, schedule: Q01DX009 (ip), vehicle: Klucel (hydroxypropylcellulose) (HPC)
[18] = dose: 200.0 mg/kg/injection, schedule: Q01DX009 (ip), vehicle: Klucel (hydroxypropylcellulose) (HPC)

Measured: T/C

COc1cccc2c1C(=O)c1c(O)c3c(c(O)c1C2=O)[C@@H](N=[N+]=[N-])[C@@](O)(C(C)=O)C[C@@H]3OC1CC(N)C(O)C(C)O1 (stereo partly drawn)
inactive: dose: 3.13 mg/kg/injection, schedule: Q04DX003 (ip), vehicle: water 102 % of control | dose: 6.25 mg/kg/injection, schedule: Q04DX003 (ip), vehicle: water 111 % of control | dose: 12.5 mg/kg/injection, schedule: Q04DX003 (ip), vehicle: water 117 % of control and 120 % of control | dose: 25.0 mg/kg/injection, schedule: Q04DX003 (ip), vehicle: water 122 % of control | dose: 50.0 mg/kg/injection, schedule: Q04DX003 (ip), vehicle: water 105 % of control and 120 % of control | dose: 100.0 mg/kg/injection, schedule: Q04DX003 (ip), vehicle: water 100 % of control

CC(Br)C(=O)Nc1ncc([N+](=O)[O-])s1 (stereo not drawn)
inactive: [1] 95 % of control | [2] 100 % of control

COc1c(Cl)c(=O)oc2ccc(Cl)cc12
inactive: dose: 6.25 mg/kg/injection, schedule: Q01DX009 (ip), vehicle: Klucel (hydroxypropylcellulose) (HPC) 104 % of control | dose: 12.5 mg/kg/injection, schedule: Q01DX009 (ip), vehicle: Klucel (hydroxypropylcellulose) (HPC) 99 % of control | dose: 25.0 mg/kg/injection, schedule: Q01DX009 (ip), vehicle: Klucel (hydroxypropylcellulose) (HPC) 97 % of control | [3] 104 % of control

O=C(O)c1cccc(SS(=O)(=O)c2cccc(C(=O)O)c2)c1
inactive: [4] 109 % of control | [5] 112 % of control | [6] 107 % of control

Cc1ccccc1C1OC2=C(Nc3ccccc3N2)C1=O (stereo not drawn)
inactive: [7] 99 % of control | [8] 101 % of control | [9] 92 % of control

CC1=CC(=O)[C@@H](O)[C@@]2(C)C1C[C@H]1OC(=O)[C@H](C/C=C(/C)C(C)C)[C@H]3C(C)C(O)C4(O)OC[C@@]31C42 (stereo partly drawn)
inactive: dose: 1.0 mg/kg/injection, schedule: Q01DX005 (ip), vehicle: saline with Tween-80 100 % of control | dose: 2.0 mg/kg/injection, schedule: Q01DX005 (ip), vehicle: saline with Tween-80 96 % of control | dose: 4.0 mg/kg/injection, schedule: Q01DX005 (ip), vehicle: saline with Tween-80 95 % of control | dose: 8.0 mg/kg/injection, schedule: Q01DX005 (ip), vehicle: saline with Tween-80 101 % of control

O=C(/C(=C(\C(=O)c1ccccc1)c1ccccc1)c1ccccc1)c1ccccc1
inactive: dose: 50.0 mg/kg/injection, schedule: Q01DX009 (ip), vehicle: saline with Tween-80 99 % of control | [10] 92 % of control | [11] 87 % of control | [12] 86 % of control

COC(=O)/C=N/O
inactive: [13] 99 % of control | [14] 102 % of control | [15] 102 % of control

COC(=O)C1=C(/C=C/C(C)=O)NC(C)=C(C(=O)OC(C)C)C1c1ccccc1Cl (stereo not drawn)
inactive: dose: 25.0 mg/kg/injection, schedule: Q01DX005 (ip), vehicle: Klucel (hydroxypropylcellulose) (HPC) 105 % of control | [4] 99 % of control and 108 % of control and 96 % of control | [5] 102 % of control and 104 % of control and 113 % of control | [6] 108 % of control and 116 % of control

COc1cccc(OC)c1OCCN
inactive: [16] 111 % of control | [1] 99 % of control

C[C@]12CC[C@H]3[C@@H](CCC4=CC(=O)CC[C@@]43C)[C@@H]1CC[C@@H]2C(=O)C=O
inactive: [3] 109 % of control | [17] 106 % of control | [18] 103 % of control

C[N+](C)(C)CCBr
inactive: dose: 3.12 mg/kg/injection, schedule: Q01DX009 (ip), vehicle: saline 100 % of control | dose: 6.25 mg/kg/injection, schedule: Q01DX009 (ip), vehicle: saline 104 % of control | dose: 12.5 mg/kg/injection, schedule: Q01DX009 (ip), vehicle: saline 101 % of control | dose: 12.5 mg/kg/injection, schedule: Q04DX003 (ip), vehicle: saline 105 % of control | dose: 25.0 mg/kg/injection, schedule: Q01DX009 (ip), vehicle: saline 101 % of control | dose: 25.0 mg/kg/injection, schedule: Q04DX003 (ip), vehicle: saline 100 % of control

O=C(c1ccccc1)c1ccc2n[se]nc2c1
inactive: dose: 3.75 mg/kg/injection, schedule: Q01DX005 (ip), vehicle: saline with Tween-80 100 % of control | dose: 7.5 mg/kg/injection, schedule: Q01DX005 (ip), vehicle: saline with Tween-80 87 % of control | dose: 15.0 mg/kg/injection, schedule: Q01DX005 (ip), vehicle: saline with Tween-80 97 % of control

COc1ccc(C2OC3=Nc4ccccc4NC3C2=O)cc1OC (stereo not drawn)
inactive: [7] 107 % of control | [8] 105 % of control | [9] 100 % of control

O=C1NC(=O)C(c2ccccc2)(c2ccccc2)N1S(=O)(=O)c1ccccc1
inactive: [3] 100 % of control | [17] 108 % of control | [18] 106 % of control

CCOC1C(=O)C=COC1C(C)C (stereo not drawn)
inactive: [13] 108 % of control | [14] 104 % of control | [15] 110 % of control

Cc1ccc(N=Cc2cccs2)c(Br)c1
inactive: [3] 100 % of control | [17] 118 % of control | [18] 100 % of control

CC(C)Oc1ccc(C(=O)NS(=O)(=O)c2ccc(N=Nc3c(O)n(-c4ccccc4)n(-c4ccccc4)c3=O)cc2)cc1
inactive: [3] 94 % of control | [17] 91 % of control | [18] 93 % of control

CCOC(=O)C(C(=O)OCC)n1c(=O)c2c(ncn2C)n(C)c1=O
inactive: dose: 100.0 mg/kg/injection, schedule: Q01DX001 (ip), vehicle: Klucel (hydroxypropylcellulose) (HPC) 110 % of control | dose: 200.0 mg/kg/injection, schedule: Q01DX001 (ip), vehicle: Klucel (hydroxypropylcellulose) (HPC) 101 % of control | dose: 400.0 mg/kg/injection, schedule: Q01DX001 (ip), vehicle: Klucel (hydroxypropylcellulose) (HPC) 105 % of control

O=C(Nc1cnns1)c1ccccc1
inactive: dose: 12.5 mg/kg/injection, schedule: Q01DX009 (ip), vehicle: other 105 % of control | dose: 25.0 mg/kg/injection, schedule: Q01DX009 (ip), vehicle: other 99 % of control | dose: 50.0 mg/kg/injection, schedule: Q01DX009 (ip), vehicle: other 102 % of control | dose: 100.0 mg/kg/injection, schedule: Q01DX009 (ip), vehicle: other 105 % of control | dose: 200.0 mg/kg/injection, schedule: Q01DX009 (ip), vehicle: other 89 % of control

NC(=O)C1c2ccccc2C=Cc2ccccc21
inactive: dose: 50.0 mg/kg/injection, schedule: Q01DX005 (ip), vehicle: saline with Tween-80 93 % of control | dose: 100.0 mg/kg/injection, schedule: Q01DX005 (ip), vehicle: saline with Tween-80 90 % of control | dose: 200.0 mg/kg/injection, schedule: Q01DX005 (ip), vehicle: saline with Tween-80 93 % of control

COc1ccc(CSC(=S)Nc2ccc(Cl)cc2Cl)cc1
inactive: [16] 106 % of control | [1] 105 % of control | [2] 99 % of control

Cc1cc(=NO)cc(C)n1O
inactive: dose: 25.0 mg/kg/injection, schedule: Q01DX005 (ip), vehicle: distilled water + alcohol 113 % of control | dose: 50.0 mg/kg/injection, schedule: Q01DX005 (ip), vehicle: distilled water + alcohol 113 % of control and 123 % of control | dose: 50.0 mg/kg/injection, schedule: Q01DX005 (ip), vehicle: water 115 % of control | dose: 100.0 mg/kg/injection, schedule: Q01DX005 (ip), vehicle: distilled water + alcohol 121 % of control | dose: 100.0 mg/kg/injection, schedule: Q01DX005 (ip), vehicle: water 106 % of control | dose: 200.0 mg/kg/injection, schedule: Q01DX005 (ip), vehicle: water 118 % of control

CN(C)[C@@H]1C(=O)C(C(=O)NCc2nc3[nH]cnc(=S)c3[nH]2)=C(O)[C@@]2(O)C(=O)C3=C(O)c4c(O)cccc4[C@@](C)(O)[C@H]3C[C@@H]12
inactive: [10] 100 % of control | dose: 100.0 mg/kg/injection, schedule: Q04DX003 (ip), vehicle: saline with Tween-80 95 % of control | [11] 100 % of control | dose: 200.0 mg/kg/injection, schedule: Q04DX003 (ip), vehicle: saline with Tween-80 95 % of control | [12] 110 % of control | dose: 400.0 mg/kg/injection, schedule: Q04DX003 (ip), vehicle: saline with Tween-80 100 % of control
